Results taken from patent US20230357233A1, “HETEROARYL COMPOUNDS, PREPARATION METHODS AND USES THEREOF” (INVENTISBIO CO., LTD., priority 2020, published 2023).

How the values were obtained:
[1] = molecular target: Ba/F3_KRAS^G12D cells (Homo sapiens, UniProt P01116, G12D, cells depend on it); assay: Ba/F3 KRAS^G12D cell proliferation assay (cell-titer Glo); assay type: cell-based; settings: cell growth inhibition, treated with the compounds for 3 days, read-out: BaF3_KRAS^G12D IC50
Protocol: Cells were seeded at a density of 5×10^3 per well into 96-well plate and incubated overnight. Serial diluted compounds were added to each well. Cells were treated with the compounds for 3 days, after which cell-titer Glo reagent (Promega #G7572) was used to assess cell proliferation. The luminescence signal was then collected on Tecan Spark plate reader. […] Cell growth inhibition of IC50 is calculated with the equation of Y=Bottom+(Top−Bottom)/(1+10^((LogIC50−X)*HillSlope))

[2] = molecular target: recombinant human KRAS^G12D protein (Homo sapiens, UniProt P01116, G12D); assay: Temperature-dependent Fluorescence (TdF) KRAS^G12D protein binding assay; settings: 6 μM KRAS^G12D Protein, 10 μM compound, Sypro Orange; Kd calculated from fluorescent shift
Chain of recombinant human KRAS^G12D protein (P01116 1-188 isoform P01116-2 G12D): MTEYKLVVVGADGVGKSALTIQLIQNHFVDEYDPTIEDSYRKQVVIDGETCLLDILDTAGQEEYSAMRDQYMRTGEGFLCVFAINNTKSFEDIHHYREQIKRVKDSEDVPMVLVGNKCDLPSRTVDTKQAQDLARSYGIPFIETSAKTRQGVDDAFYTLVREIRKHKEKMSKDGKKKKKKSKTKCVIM
Protocol: The TdF assay was conducted in the 96-well-based real-time fluorescence plate reader (ABI 7500 or Roche LightCycler 480). Fluorescent dye Sypro Orange (Sigma) was used to monitor the protein folding-unfolding transition. Protein-compound binding was gauged by the shift in the unfolding transition temperature (ΔTm) acquired with and without compound. […] The sample plate was heated from 30° C. to 95° C. with a thermal ramping rate of […], taking a fluorescence reading every 0.4° C. using a CY3 channel matching the excitation and emission wavelengths of Sypro Orange (λ ex 470 nm; λ em 570 nm). Binding affinity (Kd value) was calculated based on the degree of fluorescent shift of the protein with and without compound.

Chain of Ba/F3_KRAS^G12D cells (P01116 whole entry G12D): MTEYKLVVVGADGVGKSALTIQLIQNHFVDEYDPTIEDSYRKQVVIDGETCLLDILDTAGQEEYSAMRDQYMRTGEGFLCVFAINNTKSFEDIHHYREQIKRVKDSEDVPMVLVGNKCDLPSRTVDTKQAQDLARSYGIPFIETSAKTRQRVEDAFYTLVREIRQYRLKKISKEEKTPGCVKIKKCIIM

GI50 [1] | Kd [2] | SMILES
0.5 to 5 µM | > 5 µM | c1ccc2c(-c3ncc4c(N5CCNCC5)nc(OCC56CCCN5CCC6)cc4n3)cccc2c1 [Compound 18]
> 5 µM | > 5 µM | CN(C)CCCn1c(=O)nc(N2CC3CCC(C2)N3)c2cc(F)c(-c3cccc4cccc(Cl)c34)nc21 [Compound 19]
0.5 to 5 µM | > 5 µM | CN(C)CCOc1nc(N2C3CCC2CNC3)c2cc(F)c(-c3ccccc3F)nc2c1-c1cccnc1C1CC1 [Compound 20]
0.5 to 5 µM | > 5 µM | c1ccc2c(-c3ncc4c(N5CC6CCC(C5)N6)nc(OCC56CCCN5CCC6)cc4n3)cccc2c1 [Compound 21]
> 5 µM | > 5 µM | Nc1cccc(F)c1-c1ncc2c(N3CCNCC3)nc(OCC34CCCN3CCC4)cc2n1 [Compound 22]
0.5 to 5 µM | > 5 µM | CN(C)CCCOc1cc2nc(-c3cccc4ccccc34)ncc2c(N2CC3CCC(C2)N3)n1 [Compound 23]
0.5 to 5 µM | > 5 µM | CN(C)CCOc1nc(N2CCNCC2)c2cc(F)c(-c3ccccc3F)nc2c1-c1cccnc1C1CC1 [Compound 24]
0.5 to 5 µM | > 5 µM | CN(C)CCCOc1nc(N2CC3CCC(C2)N3)c2cnc(-c3cccc4ccccc34)nc2c1Cl [Compound 25]
> 5 µM | > 5 µM | Nc1cccc(F)c1-c1ncc2c(N3CC4CCC(C3)N4)nc(OCC34CCCN3CCC4)cc2n1 [Compound 26]
0.5 to 5 µM | > 5 µM | CN(C)CCOc1nc(N2CC3CCC(C2)N3)c2cc(F)c(-c3ccccc3F)nc2c1-c1cccnc1C1CC1 [Compound 27]
0.5 to 5 µM | > 5 µM | Fc1ccccc1-c1nc2c(-c3cccnc3C3CC3)c(OCC34CCCN3CCC4)nc(N3CC4CCC(C3)N4)c2cc1F [Compound 28]
0.5 to 5 µM | > 5 µM | C[C@H]1CNCCN1c1nc(OCCN(C)C)c(-c2cccnc2C2CC2)c2nc(-c3cccc4ccccc34)c(F)cc12 [Compound 29]
< 0.5 µM | ≤ 0.5 µM | Fc1c(-c2cccc3cccc(Cl)c23)ncc2c(N3CC4CCC(C3)N4)nc(OC[C@@]34CCCN3C[C@H](F)C4)nc12 [Compound 30]
0.5 to 5 µM | > 5 µM | Fc1c(-c2cccc3cccc(Cl)c23)nc(OCC23CCCN2CCC3)c2ccc(N3CCNCC3)nc12 [Compound 31]
< 0.5 µM | ≤ 0.5 µM | Oc1cc(-c2ncc3c(N4CC5CCC(C4)N5)nc(OCC45CCCN4CCC5)nc3c2F)c2c(Cl)cccc2c1 [Compound 32]
> 5 µM | > 5 µM | CN1CCC[C@H]1Cn1c(=O)nc(N2CC3CCC(C2)N3)c2cnc(-c3cccc4cccc(Cl)c34)c(F)c21 [Compound 33]
> 5 µM | > 5 µM | Oc1cc(-c2nc3cc(OCC45CCCN4CCC5)nc(N4CC5CCC(C4)N5)c3cc2Cl)c2c(Cl)cccc2c1 [Compound 34]
> 5 µM | > 5 µM | CN1CCC[C@H]1Cn1c(=O)nc(N2CCNCC2)c2cnc(-c3cccc4cccc(Cl)c34)c(F)c21 [Compound 35]
< 0.5 µM | ≤ 0.5 µM | Oc1cc(-c2ncc3c(N4CC5CCC(C4)N5)nc(OC[C@@]45CCCN4C[C@H](F)C5)nc3c2F)c2c(Cl)cccc2c1 [Compound 36]
> 5 µM | > 5 µM | Nc1cccc(F)c1-c1nc2cc(OCC34CCCN3CCC4)nc(N3CC4CCC(C3)N4)c2cc1Cl [Compound 37]
> 5 µM | > 5 µM | CN1CCC[C@H]1Cn1c(=O)nc(N2CCNCC2)c2cc(F)c(-c3cccc4cccc(Cl)c34)nc21 [Compound 38]
> 5 µM | > 5 µM | CN1CCC[C@H]1Cn1c(=O)nc(N2CC3CCC(C2)N3)c2cc(F)c(-c3cc(O)cc4ccccc34)nc21 [Compound 39]
> 5 µM | > 5 µM | CN1CCC[C@H]1Cn1c(=O)nc(N2CC3CCC(C2)N3)c2cnc(-c3cc(O)cc4ccccc34)c(F)c21 [Compound 40]
> 5 µM | > 5 µM | CN1CCC[C@H]1Cn1c(=O)nc(N2CC3CCC(C2)N3)c2cc(F)c(-c3cc(O)cc4cccc(Cl)c34)nc21 [Compound 41]
0.5 to 5 µM | > 5 µM | CCN1CCN(c2nc(OCC34CCCN3CCC4)nc3c(F)c(-c4cc(O)cc5cccc(Cl)c45)ncc23)CC1 [Compound 42]
0.5 to 5 µM | > 5 µM | Oc1cc(-c2nc3cc(OC[C@@]45CCCN4C[C@H](F)C5)nc(N4CC5CCC(C4)N5)c3cc2Cl)c2c(Cl)cccc2c1 [Compound 43]
> 5 µM | > 5 µM | CN1CCC[C@H]1Cn1c(=O)nc(N2CC3CCC(C2)N3)c2cnc(-c3cc(O)cc4cccc(Cl)c34)c(F)c21 [Compound 44]

GI50 [1] | Kd [2] | SMILES
> 5 µM | > 5 µM | CN1CCC[C@H]1Cn1c(=O)nc(N2C[C@H]3CC[C@@H](C2)N3)c2cc(F)c(-c3cccc4cccc(Cl)c34)nc21 [Compound 45]
0.5 to 5 µM | > 5 µM | Clc1cccc2cccc(-c3ncc4c(N5CC6CCC(C5)N6)nc(OCC56CCCN5CCC6)cc4n3)c12 [Compound 46]
> 5 µM | ≤ 0.5 µM | N#Cc1cccc2cc(O)cc(-c3ncc4c(N5CC6CCC(C5)N6)nc(OCC56CCCN5CCC6)nc4c3F)c12 [Compound 47]
0.5 to 5 µM | > 5 µM | Clc1cccc2cccc(-c3ncc4c(N5CCNCC5)nc(OCC56CCCN5CCC6)cc4n3)c12 [Compound 48]
0.5 to 5 µM | > 5 µM | CN(C)CCOc1cc2nc(-c3ccccc3F)c(F)cc2c(N2C3CCC2CNC3)n1 [Compound 49]
0.5 to 5 µM | > 5 µM | CN(C)C1CN(c2nc(-c3cccc4cccc(Cl)c34)c(F)c3nc(N4CCNCC4)ccc23)C1 [Compound 50]
> 5 µM | > 5 µM | Oc1cc(-c2ncc3c(N4CC5CCC(C4)N5)nc(OCC45CCCN4CCC5)cc3n2)c2c(Cl)cccc2c1 [Compound 51]
0.5 to 5 µM | > 5 µM | Clc1cccc2cccc(-c3ncc4c(N5C6CCC5CNC6)nc(OCC56CCCN5CCC6)cc4n3)c12 [Compound 52]
< 0.5 µM | > 5 µM | CN1CCC[C@@H]1COc1nc(-c2cccc3cccc(Cl)c23)c(F)c2nc(N3CCNCC3)ccc12 [Compound 53]
0.5 to 5 µM | > 5 µM | CN1CCC[C@@H]1COc1nc(-c2cccc3ccccc23)c(F)c2nc(N3CCNCC3)ccc12 [Compound 54]
> 5 µM | > 5 µM | Oc1cc(-c2ncc3c(C4CCNCC4)nc(OCC45CCCN4CCC5)nc3c2F)c2c(Cl)cccc2c1 [Compound 55]
0.5 to 5 µM | > 5 µM | CCN1CCC(c2nc(OCC34CCCN3CCC4)nc3c(F)c(-c4cc(O)cc5cccc(Cl)c45)ncc23)CC1 [Compound 56]
> 5 µM | > 5 µM | Oc1cc(-c2nc(OCC34CCCN3CCC4)c3ccc(N4CCNCC4)nc3c2F)c2c(Cl)cccc2c1 [Compound 57]
0.5 to 5 µM | 0.5 to 5 µM | Cc1cccc2cc(O)cc(-c3ncc4c(N5CC6CCC(C5)N6)nc(OC[C@@]56CCCN5C[C@H](F)C6)c(Cl)c4n3)c12 [Compound 58]
> 5 µM | > 5 µM | Oc1cc(-c2ncc3c(N4CC5CCC(C4)N5)nc(OCC45CCCN4CCC5)cc3n2)c2c(Cl)cccc2c1Cl [Compound 59]
> 5 µM | > 5 µM | N#Cc1cc2c(N3CC4CCC(C3)N4)nc(OC[C@@]34CCCN3C[C@H](F)C4)nc2nc1-c1cc(O)cc2ccccc12 [Compound 60]
0.5 to 5 µM | ≤ 0.5 µM | CCc1cccc2cc(O)cc(-c3ncc4c(N5CC6CCC(C5)N6)nc(OC[C@@]56CCCN5C[C@H](F)C6)c(Cl)c4n3)c12 [Compound 61]
0.5 to 5 µM | > 5 µM | Oc1cc(-c2ncc3c(N4CC5CCC(C4)N5)nc(OC[C@@]45CCCN4C[C@H](F)C5)cc3n2)c2ccccc2c1 [Compound 62]
0.5 to 5 µM | > 5 µM | Oc1cc(-c2ncc3c(N4CC5CCC(C4)N5)nc(OC[C@@]45CCCN4C[C@H](F)C5)c(Cl)c3n2)c2ccccc2c1 [Compound 63]
> 5 µM | > 5 µM | CN1CCC[C@H]1Cn1c(=O)nc(N2CCN[C@@H](CC#N)C2)c2cnc(-c3cc(O)cc4cccc(Cl)c34)c(F)c21 [Compound 64]
> 5 µM | 0.5 to 5 µM | Oc1cc(-c2ncc3c(N4CC5CCC(C4)N5)nc(OCC45CCCN4CCC5)c(Cl)c3n2)c2c(Cl)cccc2c1 [Compound 65]
0.5 to 5 µM | > 5 µM | c1ccc2c(-c3ncc4c(N5CC6CCC(C5)N6)cc(OCC56CCCN5CCC6)nc4n3)cccc2c1 [Compound 66]
0.5 to 5 µM | > 5 µM | Fc1c(-c2cccc3cccc(Cl)c23)ncc2c(N3CCNCC3)cc(OCC34CCCN3CCC4)nc12 [Compound 67]
> 5 µM | ≤ 0.5 µM | Nc1nc2c(-c3ncc4c(N5CC6CCC(C5)N6)nc(OC[C@@]56CCCN5C[C@H](F)C6)nc4c3F)ccc(F)c2s1 [Compound 68]
0.5 to 5 µM | > 5 µM | Fc1c(-c2cccc3cccc(Cl)c23)ncc2c(OCC34CCCN3CCC4)cc(N3CCNCC3)nc12 [Compound 69]
< 0.5 µM | ≤ 0.5 µM | Oc1cc(-c2ncc3c(N4C5CCC4CNC5)nc(OC[C@@]45CCCN4C[C@H](F)C5)nc3c2F)c2c(Cl)cccc2c1 [Compound 70]
